According to patent US20230348401A1, “Inhibitors of Glucose-6-phosphate Dehydrogenase and Uses Thereof” (The Trustees of Princeton University, priority 2020, published 2023):

Experiments:
[1] = system: bone marrow derived macrophages; assay: Intracellular cytokines in bone marrow-derived macrophages; type: cell-based, mouse
Protocol: Mouse bone marrow monocyte/macrophage progenitors were isolated from femur and tibia and cultured in BMM media (DMEM supplemented with 10% FBS, 20% L929-conditioned media, 100 U/ml penicillin, and 100 µg/ml streptomycin). Expression of CD11b and F4/80 was checked by flow cytometry after 6 days in culture. Mature macrophages were either maintained in BMM media (M0 macrophages) or stimulated overnight with LPS (100 ng/mL) + IFNγ (20 ng/mL) for M1 activation or IL-4 (20 ng/mL) for M2 activation.
To analyze intracellular cytokines, active T cells were re-stimulated with PMA (20 ng/ml) and ionomycin (1 µg/ml) in the presence of GolgiStop and increasing concentrations of G6PDi-1. After a 6-hour incubation period, cells were collected, washed with PBS and stained with the viability dye Live/Dead Aqua. Cells were then washed with staining buffer and stained for surface markers: CD4 (APC-Cy7, clone RM4-5,), CD8a (PerCP-Cy5.5, clone 53-6.7). Cells were then fixed and permeabilized and stained for intracellular cytokines: IFN-γ (FITC, clone XMG1.2), TNFα (PE-Cyanine7, clone MP6-XT22) and IL-2 (PE, clone JES6-5H4). To analyze intracellular cytokines, mature macrophages were stimulated with LPS (100 ng/mL) + IFNγ (20 ng/mL) in the presence of GolgiStop and increasing concentrations of G6PDi-1. […]

[2] = system: CD4+ regulatory T cells (Treg); assay: Treg assays; type: cell-based; settings: CD3/CD28 in the presence of TGF-β
Protocol: Spleen and peripheral lymph nodes were harvested and processed to single cell suspensions of lymphocytes. Red blood cells were removed with hypotonic lysis. We used magnetic beads (Miltenyi Biotec, San Diego, CA) for isolation of Tconv (CD4^+CD25^-), Treg (CD4^+CD25^+), and antigen presenting cells (CD90.2^-). For cell culture medium, we used RPMI 1640 medium supplemented with 10% fetal bovine serum (FBS), penicillin (100 U/mL), streptomycin (100 µg/mL), and 55 µM β-mercaptoethanol Treg suppression and iTreg polarization were conducted as previously reported. For Treg suppression assays, Tconv were purified and stimulated with irradiated antigen presenting cells plus CD3ε mAb (1 µg/mL, BD Pharmingen). To assess proliferation, Tconv cells were labeled with carboxyfluorescein succinimidyl ester (CFSE), and Treg cells with CellTrace Violet. After 72 h, proliferation of Tconv and Treg cells was determined by flow cytometric analysis of CFSE and CellTrace Violet dilution, respectively. For conversion to Foxp3^+ Tregs, Tconv cells were incubated for 3-5 days with CD3ε/CD28 mAb beads, plus TGF-β (3 ng/mL) and IL-2 (25 U/mL), and analyzed by flow cytometry for Foxp3+ iTreg. Flow cytometry data was captured using Cytoflex (Beckman Coulter, Brea, CA) and analyzed using the FlowJo 10.2 software.

G6PD [3] = target: T1, G6PD (Homo sapiens, UniProt P11413); assay: 6-pg levels in HepG2 cells (cellular target engagement); type: cell-based; design: endogenous in cells; settings: HepG2 cells; read-out: IC50, decrease in 6-pg levels
Text: Direct Monitoring of 6-pg in cells. The metabolite 6-phosphogluconate (6-pg) is a downstream product of the G6PD reaction, and is believed to be made predominantly by the oxidative pentose phosphate pathway in mammalian cells. Though the direct product of G6PD is the lactone form of 6-pg (6-phosphogluconolactone), this product is believed to readily hydrolyze to 6-pg under cellular conditions, and is therefore difficult to detect. Thus, to directly monitor the G6PD reaction, methods for measuring 6-pg levels in intact cells were developed.
To explore this possibility further, more specific assays for evaluating G6PD cellular target engagement were developed. […] These included the hepatocellular carcinoma line, HepG2, which was selected as the primary cell for direct 6-pg monitoring. Consistent with the oxPPP being the primary source of 6-pg in these cells, G6PD knockout led to nearly complete 6-pg loss (FIGS. 1B and 1C).
(§1) For analysis of intracellular metabolites by LC-MS, adherent cell lines were plated and grown to 80% confluency in 6-well plates. At the start of an experiment, the appropriate media was added to cells, which included isotope tracers and/or chemical inhibitors as described. Cells were incubated at 37° C. at 5% CO2 for 2 hours (unless otherwise noted). For all experiments involving small molecule agents, DMSO concentrations were <0.2%. After 2 hours, media was removed by aspiration and metabolome extraction was performed (without any wash steps) by the addition of 800 µL of ice cold solvent (40:40:20 acetonitrile:methanol:water + 0.5% formic acid). After a 1-minute incubation on ice, the extract was neutralized by the addition of NH4HCO3 (15% w/v). The samples were incubated at -20° C. for approximately 30 minutes, at which point the wells were scraped and the extract transferred to Eppendorf tubes and centrifuged (15 minutes, 16000 rpm, 4° C.). The resulting supernatant was frozen on dry ice and kept at -80° C. until LC-MS analysis.
Metabolites were analyzed using a quadrupole-orbitrap mass spectrometer (Q Exactive Plus, Thermo Fisher Scientific, Waltham, MA), coupled to hydrophilic interaction chromatography (HILIC) with LC separation on a XBridge BEH Amide column (Waters), or a stand-alone orbitrap (Thermo-Fisher Exactive) coupled to reversed-phase ion-pairing chromatography with LC separation on a HSS-T3 column (Waters). Both mass spectrometers were operating in negative ion mode and were coupled to their respective liquid chromatography methods via electrospray-ionization. Detailed analytical conditions have been previously described.
Target sequence in this assay (P11413 whole entry): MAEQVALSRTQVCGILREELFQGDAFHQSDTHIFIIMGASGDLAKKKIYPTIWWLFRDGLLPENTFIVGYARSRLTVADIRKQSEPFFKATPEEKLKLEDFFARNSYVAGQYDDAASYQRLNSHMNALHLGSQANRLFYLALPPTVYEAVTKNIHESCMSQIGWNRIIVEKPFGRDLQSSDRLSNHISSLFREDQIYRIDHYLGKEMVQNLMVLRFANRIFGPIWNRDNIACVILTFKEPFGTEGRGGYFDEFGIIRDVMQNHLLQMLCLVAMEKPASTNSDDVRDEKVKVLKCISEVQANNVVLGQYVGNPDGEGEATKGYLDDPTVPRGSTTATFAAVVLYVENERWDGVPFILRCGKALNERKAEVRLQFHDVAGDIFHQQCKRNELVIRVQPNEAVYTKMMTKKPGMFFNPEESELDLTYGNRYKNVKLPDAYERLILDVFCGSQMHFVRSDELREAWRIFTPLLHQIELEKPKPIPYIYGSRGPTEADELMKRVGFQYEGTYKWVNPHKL

G6PD [4] = target: T1, G6PD; assay: G6PD enzymatic activity by LC-MS (6-pg production); type: biochemical; design: Partially truncated human G6PD (residues 28-515, Uniprot ID P11413); His6 with thrombin cleavage site (N, cleaved yes); made in house; host or cells: Escherichia coli BL21(DE3)pLysS; settings: orthogonal LC-MS assay
Protocol: Aliquots of reaction mixture were collected at indicated time points and rapidly quenched by diluting (1:5) into methanol precooled on dry ice. The mixtures were centrifuged at 13,000 rcf for 20 minutes at 4° C., and the resulting supernatants were diluted (1:20) into 40:40:20 methanol/ acetonitrile/ water and analyzed by LC-MS.
Target sequence in this assay (P11413 28-515): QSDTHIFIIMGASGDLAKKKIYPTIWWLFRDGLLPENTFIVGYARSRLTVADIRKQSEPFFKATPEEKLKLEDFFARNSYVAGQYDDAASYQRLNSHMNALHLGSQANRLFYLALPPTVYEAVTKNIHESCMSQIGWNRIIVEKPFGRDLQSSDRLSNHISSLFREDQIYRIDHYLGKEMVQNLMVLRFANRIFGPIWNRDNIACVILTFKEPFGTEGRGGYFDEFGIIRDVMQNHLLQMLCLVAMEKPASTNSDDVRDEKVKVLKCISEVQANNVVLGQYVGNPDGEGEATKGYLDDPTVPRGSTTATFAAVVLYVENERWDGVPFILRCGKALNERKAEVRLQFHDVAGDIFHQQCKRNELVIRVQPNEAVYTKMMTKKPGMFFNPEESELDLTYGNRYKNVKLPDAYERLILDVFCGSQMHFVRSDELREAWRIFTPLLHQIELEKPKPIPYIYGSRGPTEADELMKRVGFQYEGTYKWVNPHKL

[5] = system: active CD8+ or CD4+ cells; assay: Intracellular cytokines in active T cells after PMA and ionomycin; type: cell-based, mouse
Protocol: To analyze intracellular cytokines, active T cells were re-stimulated with PMA (20 ng/ml) and ionomycin (1 µg/ml) in the presence of GolgiStop and increasing concentrations of G6PDi-1. After a 6-hour incubation period, cells were collected, washed with PBS and stained with the viability dye Live/Dead Aqua. Cells were then washed with staining buffer and stained for surface markers: CD4 (APC-Cy7, clone RM4-5,), CD8a (PerCP-Cy5.5, clone 53-6.7). Cells were then fixed and permeabilized and stained for intracellular cytokines: IFN-γ (FITC, clone XMG1.2), TNFα (PE-Cyanine7, clone MP6-XT22) and IL-2 (PE, clone JES6-5H4). To analyze intracellular cytokines, mature macrophages were stimulated with LPS (100 ng/mL) + IFNγ (20 ng/mL) in the presence of GolgiStop and increasing concentrations of G6PDi-1. After a 6-hour incubation period, cells were collected, washed with PBS and stained with the viability dye Live/Dead Aqua. Cells were then fixed and permeabilized and stained for intracellular cytokines: TNFα (PE-Cyanine7, clone MP6-XT22) and IL-10 (V450, clone JES5-16E3).

HCT116 cells = assay: NADP/NADPH ratio and dUMP levels in HCT116 cells; type: cell-based, human; settings: dose-response
Protocol: as §1, with “The resulting supernatant was frozen on dry ice and kept at -80° C. until LC-MS analysis.” left out
Metabolites were analyzed using a quadrupole-orbitrap mass spectrometer (Q Exactive Plus, Thermo Fisher Scientific, Waltham, MA), coupled to hydrophilic interaction chromatography (HILIC) with LC separation on a XBridge BEH Amide column (Waters), or a stand-alone orbitrap (Thermo-Fisher Exactive) coupled to reversed-phase ion-pairing chromatography with LC separation on a HSS-T3 column (Waters). […]

SMILES: N#Cc1cc(Nc2ncc3c(n2)CCCCC3=O)cs1 [Compound 2, 4-([5-oxo-6H,7H,8H,9H-cyclohepta[d]pyrimidin-2-yl]amino)thiophene-2-carbonitrile]
- macrophage cytokine production ([1]; classically activated macrophages (MΦ-1)): minimally affecting
- NADPH, LPS-induced pro-inflammatory cytokine production, iNOS upregulation ([1]; macrophages): did not decrease
- formation and proliferation of Foxp3+ cells [2]: unaffected
- IC50 (G6PD [3]): ~13 µM
- 6-pg production by recombinant human G6PD (G6PD [4]): demonstrated in vitro inhibition of G6PD activity
- cytokine production ([5]; CD8+ and CD4+ T cells, PMA and ionomycin, 6 h): blocked cytokine production
- IFNγ mRNA ([5]; active CD8+ T cells): decreased
- NADP/NADPH (HCT116 cells): dose-dependent increases
- dUMP (HCT116 cells): dose-dependent increases
